Patent US6576593B2, “Synergistic herbicidal compositions comprising herbicides from the benzoylcyclohexanedione group for use in maize corps” (Aventis CropScience GmbH, priority 2001, dated 2003)

What was measured:
[1] = tested on: Avena fatua (AVENA); experiment: Herbicidal activity of A5, herbicides (B) and their combinations, visual scoring, against AVEFA; format: in vivo
Description: (§1) The herbicidal efficacy of the active ingredients or active ingredient mixtures was scored visually by comparing the treated plots with untreated control plots. The damage and development of all aerial plant parts was recorded. […] The score figures of in each case 4 plots were averaged. Maize plants were grown in the open on plots of from 5 to 10 m^2 in size on different soils and under various climatic conditions, the natural presence of harmful plants or seeds thereof in the soil being exploited for the experiments. […] The active ingredient or active ingredient combinations were applied post-emergence as WG, WP or EC formulations. After 2 to 8 weeks, the plants were scored visually in comparison with an untreated comparison group. […] Moreover, the herbicidal activities of the compositions according to the invention exceed the expected values calculated using Colby's formula. In contrast, the maize plants were left unharmed or virtually unharmed as a consequence of the treatment. When applying the combinations according to the invention, herbicidal effects are frequently observed on a harmful plant species which exceed the formal total of the effects of the herbicides present when these are applied by themselves. Alternatively, it is observed in some cases that a lower application rate is required for the herbicide combination in order to achieve the same effect on a harmful plant species in comparison with the individual products. […] The biological examples listed in the tables hereinbelow relate to the herbicidal activity of combinations according to the invention of the following herbicides against the harmful plants Ipomea laputifolia (IPOMEA) and Avena fatua (AVENA): […]

[2] = tested on: Ipomea laputifolia (IPOMEA); experiment: Herbicidal activity of A5, herbicides (B) and their combinations, visual scoring, against IPOMEA; format: in vivo
Description: as §1

CC(C)N(C(=O)COc1nnc(C(F)(F)F)s1)c1ccc(F)cc1 [Compound B1.4, flufenacet] was tested. Which pest or weed control at 373 g/ha ([1]; Avena fatua, Dosage 373 g ai/ha, read-out: Activity against AVEFA found) did it give?
The pest or weed control at 373 g/ha was 50%.

And the pest or weed control at 373 g/ha ([2]; Dosage 373 g ai/ha, read-out: Activity against IPOMEA found)?
The pest or weed control at 373 g/ha was 25%.

For CCc1cccc(C)c1N(C(=O)CCl)C(C)COC (stereo not drawn) [Compound B1.5, metolachlor], which pest or weed control at 960 g/ha ([1]; Avena fatua, Dosage 960 g ai/ha, read-out: Activity against AVEFA found) is on record?
Its pest or weed control at 960 g/ha is 20%.

What about the pest or weed control at 960 g/ha ([2]; Dosage 960 g ai/ha, read-out: Activity against IPOMEA found) of the same molecule?
The pest or weed control at 960 g/ha was 13%.

CCNc1nc(Cl)nc(NC(C)C)n1 [Compound B2.1, atrazine] was tested. Which pest or weed control at 540 g/ha ([1]; Avena fatua, Dosage 540 g ai/ha, read-out: Activity against AVEFA found) did it give?
The pest or weed control at 540 g/ha was 50%.

And the pest or weed control at 540 g/ha ([2]; Dosage 540 g ai/ha, read-out: Activity against IPOMEA found)?
Its pest or weed control at 540 g/ha is 25%.

Which results are given for N#Cc1cc(Br)c(O)c(Br)c1 [Compound B2.2, bromoxynil]?
pest or weed control at 140 g/ha ([1]; Avena fatua, Dosage 140 g ai/ha, read-out: Activity against AVEFA found): 20%; pest or weed control at 140 g/ha ([2]; Dosage 140 g ai/ha, read-out: Activity against IPOMEA found): 25%

COc1c(Cl)ccc(Cl)c1C(=O)O [Compound B4.1, dicamba] was tested. Which pest or weed control at 80 g/ha ([1]; Avena fatua, Dosage 80 g ai/ha, read-out: Activity against AVEFA found) did it give?
The pest or weed control at 80 g/ha was 10%.

And the pest or weed control at 80 g/ha ([2]; Dosage 80 g ai/ha, read-out: Activity against IPOMEA found)?
Its pest or weed control at 80 g/ha is 25%.

With CCc1cnc(C2=NC(C)(C(C)C)C(=O)N2)c(C(=O)O)c1 (stereo not drawn) [Compound B5.6, imazethapyr] as the molecule, how does the pest or weed control at 30 g/ha ([1]; Avena fatua, Dosage 30 g ai/ha, read-out: Activity against AVEFA found) read?
Its pest or weed control at 30 g/ha is 10%.

And the pest or weed control at 30 g/ha ([2]; Dosage 30 g ai/ha, read-out: Activity against IPOMEA found)?
Its pest or weed control at 30 g/ha is 25%.

COC(=O)c1ccc(I)cc1S(=O)(=O)[N-]C(=O)Nc1nc(C)nc(OC)n1.[Na+] [Compound B5.7, iodosulfuron-methyl-sodium] was tested. Which “Activity against AVEFA found” value ([1]; Dosage 1 g ai/ha) did it give?
Its value is 30%.

What about the “Activity against IPOMEA found” value ([2]; Dosage 1 g ai/ha) of the same molecule?
The value was 20%.

With COc1cc(OC)nc(NC(=O)NS(=O)(=O)c2ncccc2C(=O)N(C)C)n1 [Compound B5.9, nicosulfuron] as the molecule, how does the pest or weed control at 15 g/ha ([1]; Avena fatua, Dosage 15 g ai/ha, read-out: Activity against AVEFA found) read?
Its pest or weed control at 15 g/ha is 40%.

What about the pest or weed control at 15 g/ha ([2]; Dosage 15 g ai/ha, read-out: Activity against IPOMEA found) of the same molecule?
Its pest or weed control at 15 g/ha is 20%.

How did the pest or weed control at 840 g/ha ([1]; Avena fatua, Dosage 840 g ai/ha, read-out: Activity against AVEFA found) turn out when CCC(CC)Nc1c([N+](=O)[O-])cc(C)c(C)c1[N+](=O)[O-] [Compound B7.1, pendimethalin] was run?
Its pest or weed control at 840 g/ha is 10%.

And the pest or weed control at 840 g/ha ([2]; Dosage 840 g ai/ha, read-out: Activity against IPOMEA found)?
The pest or weed control at 840 g/ha was 40%.
